Experimental data reported in patent publication US11596939B2, “Lamp component distribution in a microfluid cell” (priority 2017, dated 2023).

Experiments:
[1] = tested on: LAMP reaction; assay: ProClin950 in BlisterBuffer, effect on LAMP reaction; type: biochemical; details: added to BlisterBuffer
Text: Additionally, we added ProClin950 a biozide to the BlisterBuffer in order to inhibit microbial growth.

[2] = tested on: target DNA; assay: Sample pre-treatment with antimicrobial peptides before isothermal amplification; details: sample pre-treatment with peptide
[3] = tested on: LAMP reaction; assay: Effect of antimicrobial peptides on the amplification (LAMP) reaction; type: biochemical
Text: The use of peptides with higher concentrations may inhibit the amplification reaction in certain extent in comparison of ideal conditions, e.g. pure water (MQ). This is a drawback of use of peptides. However, not all the peptides have an equal effect.
This effect is explained by secondary property of peptides, which is an anti-inhibitory effect. Meaning, that in additionally to lysis effect, peptides also neutralizing inhibitory substances in real samples.

Compound	increase in isothermal amplification efficiency [2]	also measured
Cn1sccc1=O [ProClin950, 2-Methyl-4-isothiazolin-3-one]	–	inhibition of the LAMP reaction [1]: did not inhibit
CC[C@H](C)[C@H](NC(=O)CN)C(=O)NCC(=O)N[C@@H](C)C(=O)N[C@H](C(=O)N[C@@H](CC(C)C)C(=O)N[C@@H](CCCCN)C(=O)N[C@H](C(=O)N[C@@H](CC(C)C)C(=O)N[C@H](C(=O)N[C@H](C(=O)NCC(=O)N[C@@H](CC(C)C)C(=O)N1CCC[C@H]1C(=O)N[C@@H](C)C(=O)N[C@@H](CC(C)C)C(=O)N[C@H](C(=O)N[C@@H](CO)C(=O)N[C@@H](Cc1c[nH]c2ccccc12)C(=O)N[C@H](C(=O)N[C@@H](CCCCN)C(=O)N[C@@H](CCCNC(=N)N)C(=O)N[C@@H](CCCCN)C(=O)N[C@@H](CCCNC(=N)N)C(=O)N[C@@H](CCC(N)=O)C(=O)N[C@@H](CCC(N)=O)C(N)=O)[C@@H](C)CC)[C@@H](C)CC)[C@@H](C)O)[C@@H](C)O)C(C)C)C(C)C [melittin, Melittin]	did not give significant increase	–
Cecropin P1 (SWLSKTAKKLENSAKKRISEGIAIAIQGGPR; Cecropin P1; listed as Ascaris suum)	–	increase of the target DNA available for the isothermal amplification ([2]; on average): 6 times; inhibitory effect on the amplification reaction ([3]; among current selection of peptides, compared with pure water (MQ)): lowest inhibitory effect; effect on amplification in urinary sample ([3]; in comparison of pure urinary sample): enhancing effect
MSI-78	did not give significant increase	–
MSI-594	did not give significant increase	–
bombolitin III	did not give significant increase	–
